A short description of data set [1]: In vitro metabolic stability with mouse liver microsomes. The format is in vitro ADME. The following applies: for metabolic stability, percentage of intact compound recovered relative to control: MLM 1 mg/ml + NADPH-generating system, 10 µM, HPLC; for metabolic stability, percentage of intact compound recovered relative to control / metabolic stability (in words): 60 min; for metabolic stability (in words): MLM + NADPH-generating system. On the procedure: All newly synthesized LSF derivatives of 5c were biologically evaluated to determine whether the introduced modifications influenced both metabolic stability and anti‐PCSK9 activity. Microsomal stability assays were conducted to assess the impact of LSF modifications on improving the stability of 5c. In these assays, LSF derivatives were incubated with mouse liver microsomes (MLM) and an NADPH‐generating system for 60 min, followed by HPLC analysis. Control samples included compounds and liver microsomes without the NADPH system, allowing for the assessment of nonspecific binding to microsomes. […] Acylated derivatives 12, 13, and 14 achieved stability levels exceeding 95%, as did the bicyclic derivative 7, which exemplifies a dual‐site functionalization.
MLM (pooled male) were obtained from Xenotech, LLC (Cambridge, Kansas City, USA). Glucose‐6‐phosphate (G6P), oxidized nicotinamide‐adenine‐dinucleotide phosphate (NADP^+), magnesium chloride (MgCl2), and glucose‐6‐phosphate‐dehydrogenase (G6PDH) were supplied by Sigma‐Aldrich (Milan, Italy). Metabolic stability assays were modified from Ferlenghi et al.^[ [33] ^] Briefly, samples were prepared in 100 mM phosphate buffered saline (PBS), pH 7.4, containing 1 mg ml^–1 MLM and a NADPH‐generating system (5 mM MgCl2, 10 mM glucose‐6‐phosphate, 2 mM NADP^+, 1.5 U ml^–1 of glucose‐6‐phosphate dehydrogenase). After incubation (37 °C, 5 min stirring), compounds stock solutions in DMSO were added to a final concentration of 10 µM. The final DMSO percentage in samples was kept at 0.5%. After 60 min, single aliquots of reaction mixture were withdrawn, added of two volumes of acetonitrile, centrifuged (10,000 g, 10 min) and the supernatant was analyzed by HPLC. The unspecific binding to MLM was evaluated by means of control samples in which the compounds were incubated in the absence of a NADPH generating system. The apparatus used for HPLC analysis was a Shimadzu instrument, with a reverse‐phase Nova‐Pak column (Waters) (C18 4 μm 3.9 × 150 mm, Waters). The mobile phase, pumped at a flow rate of 1.2 ml min^–1, consisted of water and acetonitrile in either a 50:50 (v/v) ratio (compounds 5c, 6a, 6b, 6c, 7, 8, 12, 13, 14, 17b) or a 40:60 (v/v) ratio (compounds 11 and 15) or a 30:70 (v/v) ratio (for compounds 17a, 18a, 18b). For compounds 9 and 10, a phosphate buffer (5.98 g L^–1 Na2HPO4, 0.19 g L^–1 KH2PO4, adjusted to pH 7.4 with 85% H3PO4 and supplemented with 1.4 mL L^–1 triethylamine; final pH: 8) and acetonitrile (50:50, v/v) were pumped at a flow rate of 2 mL min^–1. In all cases, column temperature was 35 °C, injection volume was 50 µl, and absorbance was monitored at 254 nm. Serial dilutions for the calibration curves were prepared in the interval 0.5–20 µM in either PBS:CH3CN or H2O:CH3CN mixture (50:50, v/v) for compounds 5c, 6a, 6b, 8, 9, 10, 11, 12, 13, 14, 15, 17a, 17b, 18a, 18b, and in acetonitrile for compounds 6c and 7.
On the technique in general: Liver microsomes are a subcellular fraction often used to study metabolism.

The next data set concerns secreted PCSK9. In words: PCSK9 secretion in culture medium, ELISA on HepG2 supernatants. Type of data set: cell-based, human. The procedure: Next, the levels of secreted PCSK9 were quantified by ELISA assay (Figure 5) only on supernatants collected from cells treated with noncytotoxic concentrations of each compound, as reported in Table 1. Simvastatin (Simva) at 20 and 40 μM and berberine (BBR) at 10 μM were included as controls. As described in the literature, simvastatin induces PCSK9 expression as a compensatory mechanism in response to its cholesterol‐lowering effects, being a pharmacological competitor for HMG‐CoA reductase, the rate‐limiting enzyme of the cholesterol biosynthetic pathway.^[ [29] ^] In contrast, BBR, a natural compound, reduces the expression of PCSK9 levels through transcriptional inhibition, thus increasing the LDLR availability on plasma membrane.^[ [30] ^] As additional and distinct mechanism to the latter, BBR is also able to stabilize the transcript of LDLR, thus increasing its half‐life.^[ [31] ^] As expected, cells stimulated with simvastatin released more PCSK9 into the culture medium compared to unstimulated cells, with a statistically significant concentration‐dependent effect (+73% at 20 μM, p < 0.01; +200% at 40 μM, p < 0.0001), while BBR at 10 μM decreased PCSK9 levels in the medium more than 50% (p < 0.0001 vs. basal) (Figure 5).^[ [32] ^] The amount of PCSK9 secreted into the culture media was measured with an appropriate ELISA kit (R&D System, DY3888 and DY008B2) on the supernatants collected during the MTT assay. Every experimental condition was run in duplicate and the average PCSK9 secretion and standard deviation was calculated. A 4PL regression analysis was used to interpolate unknowns with the standard curve using GraphPad Prism v10.2, according to manufacturers’ instructions. The data were normalized onto the corresponding cell viability, and IC50 was then calculated using GraphPad Prism v10.2.

The nature of data set [2]: MTT cell viability assay in HepG2 cell cultures. Type of data set: cell-based, human. The following applies: human, HepG2 cells, MTT. The procedure:
(§1) The approach we set‐up to test the new PCSK9i was based on functional assay, which evaluated at the same time compounds cytotoxicity, and their effect on the secreted PCSK9 on the same cell line. First, cell viability was evaluated in HepG2 cell cultures using the MTT assay (CC50 values are reported in Table 1 and Figure 5 ) after 24 h of incubation in starving conditions (0.4% fetal bovine serum (FBS)). The low FBS concentration, and thus low extracellular lipoproteins, stimulates the sterol responsive element binding protein (SREBP) pathway, inducing the expression of LDLR, PCSK9, HMG‐CoA reductase,^[ [28] ^] thus increasing the uptake of exogenous cholesterol and enhancing the synthesis of endogenous cholesterol. This first step allowed us to calculate the CC50 and identify the noncytotoxic concentrations (viability higher than 90%; Table 1), then tested for PCSK9 inhibitory activity.
(§2) Cell viability was assessed using the MTT assay. Cells were seeded in 96‐well plates (2.5 × 10^4 cells/well) in MEM supplemented with 10% v/v FBS and incubated for 24 h. The cells were then treated with the synthesized compounds dissolved in DMSO at increasing concentrations (from 0.5 to 50 µM) in MEM supplemented with 0.4% v/v FBS for 24 h. Simvastatin [20 and 40 µM] and BBR [10 µM] (both from Merck, St. Louis, Missouri, USA) were used as internal controls as PCSK9 inducer and inhibitor, respectively.^[ [21] ^, [34] ^, [35] ^] The cells were then incubated for 2 h with a solution of MTT [1 mg mL^–1] in MEM supplemented with 0.4% v/v FBS, away from light sources. The supernatant was then collected and 200 µL of DMSO was added to each well to solubilize the newly formed formazan. Finally, an aliquot of 100 µL was taken to measure the absorbance at a wavelength of 570 nm using an absorbance microplate reader (Spark Tecan, Switzerland). Every experimental condition was run in duplicate and the average cell viability and standard deviation was calculated. Cell viability was expressed as the percentage of treated cells compared to untreated (basal) cells. CC50 values for each compound were calculated by interpolating the percentage of cell viability through nonlinear regression analysis of the log (inhibition) versus response using GraphPad Prism software version 8.0 (GraphPad Software Inc., La Jolla, CA).

The subject of another data set is HepG2 cell cultures. In words: MTT cell viability assay in HepG2 cell cultures. The format is cell-based, human. The following applies: 0.5-50.0 μM, HepG2, MTT, 24 h. On the procedure: as §1, §2
(Tetrazolium dyes change colour on reduction, which living cells bring about.)

Where [3] appears, read: Homo sapiens, HepG2, 24 h, read-out: secreted PCSK9 change vs. basal.
Setting [4] is: Homo sapiens, HepG2, 24 h, ELISA on supernatants, normalized to viability, Figures 5 and 8 and text, read-out: IC50 (anti-PCSK9 activity, PCSK9 secretion).
[5] abbreviates: printed in Figures 5 and 8, HepG2, 24 h, read-out: CC50.
Setting [6] is: Homo sapiens, HepG2, Table S2, ELISA, non-cytotoxic concentrations, read-out: IC50 ± SD on PCSK9 secreted by HepG2.
The mark [7] stands for this setting: 24 h incubation, HepG2, 0.4% FBS, 0.5-50.0 μM, read-out: CC50 (CI 95%).
The mark [8] stands for this setting: HepG2, 24 h, non-cytotoxic concentrations.

Like-named read-outs stand apart in the source and are kept apart here.

By IC50 is commonly meant the concentration needed to halve the response being measured. As usually defined, the CC50 is the concentration giving 50% cytotoxicity.

With `Cc1cc(OCc2ccc(C(F)(F)F)cc2)c(Cc2ccc(C(F)(F)F)cc2)c(=O)n1Cc1ccc(C(F)(F)F)cc1` [Compound 18a, 6‐Methyl‐1,3‐Bis(4‐(Trifluoromethyl)Benzyl)‐4‐((4‐(Trifluoromethyl)Benzyl)Oxy)pyridin‐2(1H)‐One], the “metabolic stability, percentage of intact compound recovered relative to control” value in data set [1] is reported as “exceeding 95%”. The “metabolic stability/PCSK9 IC50 ratio (in words)” value in data set [1] (with respect to 5c) is recorded as “higher metabolic stability/PCSK9 IC50 ratio”. For the same molecule, in the data set on secreted PCSK9 (setting [3]), the inhibition at 50 µM stood at 80%. Further, the concentration for half-maximal inhibition (IC50) in the data set with secreted PCSK9 (setting [4]) was 2.1 µM. In addition, in data set [2] (setting [5]), the 50% cytotoxic concentration (CC50) at 24 h was greater than 50 µM. Also, the “cytotoxicity (in words)” value in the data set on HepG2 cell cultures is recorded as “nontoxic at all the concentrations tested”.

For the molecule `Cc1cc(OCc2cccc(F)c2)c(Cc2cccc(F)c2)c(=O)n1Cc1ccc(Cl)cc1` [Compound 18b, 1‐(4‐Chlorobenzyl)‐3‐(3‐Fluorobenzyl)‐4‐((3‐Fluorobenzyl)Oxy)‐6‐Methylpyridin‐2(1H)‐One], the “metabolic stability (in words)” value in data set [1] was “did not show any improvement in metabolic stability compared to 5c”. In addition, in the data set with secreted PCSK9 (setting [3]), the inhibition at 50 µM amounted to 81%. In addition, the half-inhibitory concentration (IC50) in the data set on secreted PCSK9 (setting [4]) turned out to be 3.3 µM. Further, the CC50 at 24 h in data set [2] (setting [5]) was greater than 50 µM. In addition, in the data set with HepG2 cell cultures, the “cytotoxicity (in words)” value was “nontoxic at all the concentrations tested”.

In the case of `CO/C(=N\c1cc(C)n(Cc2ccc(C(F)(F)F)cc2)c(=O)c1)c1ccc(C(F)(F)F)cc1` [Compound 8, Methyl (Z)‐N‐(6‐Methyl‐2‐Oxo‐1‐(4‐(Trifluoromethyl)Benzyl)‐1,2‐Dihydropyridin‐4‐yl)‐4‐(Trifluoromethyl)Benzimidate], in data set [1], the “metabolic stability (in words)” value is given as “entirely metabolized”. Besides, in the data set with secreted PCSK9 (10 μM, HepG2, 24 h, given as decrease), the “decrease of secreted PCSK9 vs. basal” value was found to be 50%. Also, the half-inhibitory concentration (IC50) in the data set with secreted PCSK9 (setting [6]) was 7.2 ± 0.51 µM. Further, the results for the CC50 at 24 h in data set [2] (setting [7]) and in data set [2] (setting [5]) were 30.2 µM and 43.1 µM, respectively.

For `Cc1cc(NCc2ccc(C(F)(F)F)cc2)c(CN2CCCC2)c(=O)n1Cc1ccc(C(F)(F)F)cc1` [Compound 9, 6‐Methyl‐3‐(Pyrrolidin‐1‐ylmethyl)‐1‐(4‐(Trifluoromethyl)Benzyl)‐4‐((4‐(Trifluoromethyl)Benzyl)Amino)pyridin‐2(1H)‐One], the “metabolic stability (in words)” value in data set [1] was “did not exhibit any enhancements relative to 5c”. Besides, in the data set with secreted PCSK9 (setting [8]), the “effect on PCSK9 secretion (in words)” value was “moderate but significant inhibition of PCSK9 secretion”. Also, the CC50 at 24 h in data set [2] (setting [7]) was 22.2 µM.

Regarding `Cc1cc(N(Cc2ccc(C(F)(F)F)cc2)C(=O)CCl)cc(=O)n1Cc1ccc(C(F)(F)F)cc1` [Compound 14, 2‐Chloro‐N‐(6‐Methyl‐2‐Oxo‐1‐(4‐(Trifluoromethyl)Benzyl)‐1,2‐Dihydropyridin‐4‐yl)‐N‐(4‐(Trifluoromethyl)Benzyl)Acetamide], the “metabolic stability, percentage of intact compound recovered relative to control” value in data set [1] is given as “exceeding 95%”. Further, in the data set on secreted PCSK9 (setting [8]), the “effect on PCSK9 secretion (in words)” value is given as “a bit less effective than 8 at the highest concentration used”. Also, in the data set with secreted PCSK9 (setting [6]), the IC50 stood at 6.4 ± 0.37 µM. Moreover, in data set [2] (setting [7]), the 50% cytotoxic concentration (CC50) at 24 h amounted to 15 µM.

On to `Cc1cc(N(Cc2ccc(C(F)(F)F)cc2)C(=O)c2ccccc2)cc(=O)n1Cc1ccc(C(F)(F)F)cc1` [Compound 13, N‐(6‐Methyl‐2‐Oxo‐1‐(4‐(Trifluoromethyl)Benzyl)‐1,2‐Dihydropyridin‐4‐yl)‐N‐(4‐(Trifluoromethyl)Benzyl)Benzamide], for which, in data set [1], the “metabolic stability, percentage of intact compound recovered relative to control” value is listed as “exceeding 95%”. For the same molecule, the inhibition at 0.5 µM in the data set on secreted PCSK9 (setting [3]) was determined as 17%. Further, in the data set with secreted PCSK9 (Homo sapiens, 5 μM, HepG2, 24 h, read-out: secreted PCSK9 change vs. basal), the inhibition at 5 µM was found to be 51%. The CC50 at 24 h in data set [2] (setting [5]) was greater than 50 µM.

As to `Cc1cc(NCc2ccc(C(F)(F)F)cc2)c(I)c(=O)n1Cc1ccc(C(F)(F)F)cc1` [Compound 6c, 3‐Iodo‐6‐Methyl‐1‐(4‐(Trifluoromethyl)Benzyl)‐4‐((4‐(Trifluoromethyl)Benzyl)Amino)pyridin‐2(1H)‐One], in data set [1], the “metabolic stability (in words)” value is listed as “did not improve compared to the parent compound 5c”. Also, in the data set on secreted PCSK9 (setting [3]), the inhibition at 0.5 µM amounted to 20%. Also, the CC50 at 24 h in data set [2] (setting [7]) stood at 46.9 µM.

(Values after publication PMC12812009, “Optimization of 4‐Amino‐2‐Pyridone Inhibitors of Proprotein Convertase Subtilisin/Kexin Type 9: Integrating Structure–Activity and Structure–Metabolism Relationships” (Chemmedchem, 2025).)
